Assay results reported in patent US7175872B2, “Pyridinium-Betain compounds for use as taste modulators” (Nestec S.A., priority 2002, dated 2007).
Where a name gives a salt, the structure may show the parent alone.

How the values were obtained:
Type in all cases: in vivo
[1] = tested on: sweet taste of glucose; experiment: Iso-intensity: relative sweetness of glucose/Alapyridaine mixtures
Experimental: • Sensory panel training: […] Sensory analyses were performed in a sensory panel room at 22-25° C. on three different sessions. • Taste thresholds: The taste thresholds of the tastants or mixtures containing basic tastants plus Pyridinium-Betains were determined in a triangle test using Evian® mineral water as the solvent at a defined pH ([…] and H.-D. Belitz, Z. Lebensm. Unters. Forsch. 1975, 159, 65-72). The samples (3 mL) were presented in order of increasing concentrations (serial 1:1 dilutions). The threshold values evaluated in two different sessions were averaged. […] The taste intensities of aqueous (Evian®) solutions containing a basic tastant, such as glucose and MSG, for example, in constant concentrations and the compounds of the general formula (A), for example […], in various concentrations were compared with those of a solution containing the basic tastant only. […] The relative taste strength (taste enhancing factor) of a mixture containing the basic […] was related to the basic tastants glucose, MSG, or other tastants, respectively, as standard substances, and was determined as the ratio of the concentrations c of iso-intensely tasting solutions of the basic tastant, such as glucose (glc), and the mixture containing tastant plus Pyridinium-Betain, […])=[…] […]

[2] = tested on: sweet taste of L-alanine; experiment: Sweet taste detection threshold of L-alanine/Pyridinium-Betaine mixtures (triangle test, sensory panel); conditions: mixture with L-alanine; for Threshold decrease: vs L-alanine in water 12.5 mmol/L
Experimental: • Sensory panel training: […] Sensory analyses were performed in a sensory panel room at 22-25° C. on three different sessions. • Taste thresholds: The taste thresholds of the tastants or mixtures containing basic tastants plus Pyridinium-Betains were determined in a triangle test using Evian® mineral water as the solvent at a defined pH ([…] and H.-D. Belitz, Z. Lebensm. Unters. Forsch. 1975, 159, 65-72). The samples (3 mL) were presented in order of increasing concentrations (serial 1:1 dilutions). The threshold values evaluated in two different sessions were averaged. […] The taste intensities of aqueous (Evian®) solutions containing a basic tastant, such as glucose and MSG, for example, in constant concentrations and the compounds of the general formula (A), for example […], in various concentrations were compared with those of a solution containing the basic tastant only. To achieve this, triangle tests were performed with two glass vials containing the basic tastant in constant concentrations, and one glass vial containing a stepwise 1:1-diluted mixture of basic […]. […] The relative taste strength (taste enhancing factor) of a mixture containing the basic […] was related to the basic tastants glucose, MSG, or other tastants, respectively, as standard substances, and was determined as the ratio of the concentrations c of iso-intensely tasting solutions of the basic tastant, such as glucose (glc), and the mixture containing tastant plus Pyridinium-Betain, […])=[…] […] This taste enhancing effect is illustrated in examples. Besides the two carbohydrates, the sweet amino acid L-alanine was also tested with […]. Again, the best impact on sweet taste perception was found for the mixture at pH 9.0, resulting in an 8-fold lower threshold.

[3] = tested on: salty taste of NaCl; experiment: Salt-intensity ranking of NaCl/Pyridinium-Betaine mixtures by sensory panel; conditions: 20 mmol/L each, pH 7.0; scale 0 (not salty) to 5 (very salty), reference NaCl-solution ranked as 1
Excerpt: The salt-intensities of various NaCl/Pyridinium-Betaine mixtures (20 mmol/L each) were compared to a 20 mmol/L NaCl standard solution. The sensory panel was asked to rank the salt-intensities of these solutions on a scale from 0 (not salty) to 5 (very salty), while the reference NaCl-solution was ranked as 1. As listed in Table 6, the most intense salty taste was found in the solution containing NaCl and Alapyridaine, as well as in the triple mixture with L-arginine. A slight impact was found for Argpyridaine and L-arginine.

[4] = tested on: umami taste of MSG; experiment: Umami taste detection threshold of MSG/Pyridinium-Betaine mixtures (triangle test, sensory panel); conditions: equimolar mixture with MSG; for Threshold decrease: vs MSG in water 1.5 mmol/L
Experimental: • Sensory panel training: […] Sensory analyses were performed in a sensory panel room at 22-25° C. on three different sessions. • Taste thresholds: The taste thresholds of the tastants or mixtures containing basic tastants plus Pyridinium-Betains were determined in a triangle test using Evian® mineral water as the solvent at a defined pH ([…] and H.-D. Belitz, Z. Lebensm. Unters. Forsch. 1975, 159, 65-72). The samples (3 mL) were presented in order of increasing concentrations (serial 1:1 dilutions). The threshold values evaluated in two different sessions were averaged. […] The taste intensities of aqueous (Evian®) solutions containing a basic tastant, such as glucose and MSG, for example, in constant concentrations and the compounds of the general formula (A), for example […], in various concentrations were compared with those of a solution containing the basic tastant only. To achieve this, triangle tests were performed with two glass vials containing the basic tastant in constant concentrations, and one glass vial containing a stepwise 1:1-diluted mixture of basic […]. […] The relative taste strength (taste enhancing factor) of a mixture containing the basic […] was related to the basic tastants glucose, MSG, or other tastants, respectively, as standard substances, and was determined as the ratio of the concentrations c of iso-intensely tasting solutions of the basic tastant, such as glucose (glc), and the mixture containing tastant plus Pyridinium-Betain, […])=[…] […] This taste enhancing effect is illustrated in examples. Pyridinium-Betaines not only enhance the sweet taste perception, but also the umami taste.

**Q.** `CC(C(=O)[O-])[n+]1cc(O)ccc1CO` (stereo not shown) [Alapyridaine, N-(1-carboxyethyl)-3-hydroxy-6-hydroxymethyl-pyridinium inner salt] was tested. Which “relative sweetness (iso-intensity)” value ([1]; 80 mmol/kg glucose and 125 mmol/kg Alapyridaine vs 80 mmol/kg glucose) did it give?
**A.** Its value is 8 -fold.

**Q.** And the “maximum relative sweetness (iso-intensity)” value ([1]; 267 mmol/kg glucose and 125 mmol/kg Alapyridaine vs reference solution 267 mmol/kg glucose)?
**A.** Its value is 5.3 -fold.

**Q.** What about the “reduction of the sweet threshold” value ([2]; pH 5.0) of the same compound?
**A.** The value was “only a slight reduction”.

**Q.** What about the Sweet detection threshold ([2]; pH 6.0) of the same compound?
**A.** Its Sweet detection threshold is 6.0 mmol/kg water.

**Q.** What about the Taste quality ([2]; pH 6.0) of the same compound?
**A.** Its Taste quality is “sweet”.

**Q.** What about the Threshold decrease ([2]; pH 6.0) of the same compound?
**A.** Its Threshold decrease is 2.0.

**Q.** And the Sweet detection threshold ([2]; pH 7.0)?
**A.** The Sweet detection threshold was 3.0 mmol/kg water.

**Q.** And the Taste quality ([2]; pH 7.0)?
**A.** The Taste quality was “sweet”.

**Q.** And the Threshold decrease ([2]; pH 7.0)?
**A.** The Threshold decrease was 4.

**Q.** And the Sweet detection threshold ([2]; pH 9.0)?
**A.** Its Sweet detection threshold is 1.5 mmol/kg water.

**Q.** What about the Taste quality ([2]; pH 9.0) of the same compound?
**A.** The Taste quality was “sweet”.

**Q.** What about the Threshold decrease ([2]; pH 9.0) of the same compound?
**A.** Its Threshold decrease is 8.

**Q.** What about the Salt-intensity [3] of the same compound?
**A.** Its Salt-intensity is 0.0.

**Q.** And the Taste quality ([4]; pH 5.0)?
**A.** The Taste quality was “umami”.

**Q.** What about the Umami detection threshold ([4]; pH 5.0) of the same compound?
**A.** Its Umami detection threshold is 0.4 mmol/kg water.

**Q.** What about the Threshold decrease ([4]; pH 5.0) of the same compound?
**A.** Its Threshold decrease is 4.0.

**Q.** And the Taste quality ([4]; pH 7.0)?
**A.** The Taste quality was “umami”.

**Q.** What about the Umami detection threshold ([4]; pH 7.0) of the same compound?
**A.** The Umami detection threshold was 0.4 mmol/kg water.

**Q.** What about the Threshold decrease ([4]; pH 7.0) of the same compound?
**A.** The Threshold decrease was 4.0.

**Q.** What about the Taste quality ([4]; pH 9.0) of the same compound?
**A.** Its Taste quality is “umami”.

**Q.** And the Umami detection threshold ([4]; pH 9.0)?
**A.** Its Umami detection threshold is 0.4 mmol/kg water.

**Q.** What about the Threshold decrease ([4]; pH 9.0) of the same compound?
**A.** Its Threshold decrease is 4.0.
